Where two headings read alike, the source gives them in different places.
Columns and labels:
[1] = Crossover dietary trial: serum AED concentration; type: in vivo, canine; conditions: for concentration at 3 months: both sexes, mixed: 17 different breeds and cross breeds, dog, in vivo, read-out: serum concentration of PB
Method: A 6-month prospective, randomized, double blinded, placebo controlled, crossover dietary trial comparing an MCT-containing diet to a standardized placebo diet containing no MCTs in canine epilepsy was performed. Subjects were fed either the MCT or placebo diet for 3 months (Day 1 to Day 90±2 days) followed by a subsequent respective switch of diet for a further 3 months (Day 90 to Day 180±2 days). Relevant data were collected on the following variables at visit 1 (Day −2), visit 2 (Day 90±2 days) and visit 3 (day 180±2 days): seizure frequency; body weight; measurements of serum phenobarbital (PB) and/or (potassium bromide) KBr concentration as appropriate; dynamic bile acids; complete blood cell count; standard clinical serum chemistry; and adverse events.
Seizure frequency refers to the number of seizures per month and seizure-days refers to the number of days in a month with seizure occurrence. The severity of seizures was analyzing using the McNemar test by comparing the presence of cluster seizures between diet groups. Comparisons made between the MCT and placebo standardized diet groups were made using match-paired student's t tests for parametric data and Wilcoxon matched-pairs signed rank test for non-parametric data where both were used two-sided and P<0.05 was considered significant. Non-parametric data are presented as median (25-75% percentile) and parametric data are shown as mean (+/−SD).
The present study used twenty-one dogs of 17 different canine breeds including: American bulldog; 2 Beagles; 2 Border Collies; Boxer; Cavalier King Charles Spaniel; English Bull Terrier; English Springer Spaniel; German Shepherd; Golden Retriever; Lhasa Apso; Mastiff; Rhodesian Ridgeback; Saint Bernard; Siberian Husky; Slovakian Rough Haired Pointer; Welsh Springer Spaniel and 3 Cross breeds. The study population consisted of 15 males, of which 10 were neutered and 5 were intact and 6 females of which 4 were neutered and 2 were intact. The dogs were of 4.59±1.73 years of age and weighed 29.79±14.73 kilograms at start of trial. All 21 dogs received PB. Most dogs were also treated additionally with KBr (n=18). Some dogs were chronically treated with a third AED, imepitoin (n=1) or levetiracetam (n=4). Twelve owners had rectal diazepam or levetiracetam for pulse therapy at home available for the acute treatment of cluster seizure episodes. There was no difference for the acute or chronic treatment regimens between the placebo or MCT phase.

[2] = test system: fifteen year old Dalmatian diagnosed with idiopathic epilepsy; assay: Example 2 case: Dalmatian with idiopathic epilepsy; type: in vivo, canine; conditions: treatment subsequently discontinued
From the text: A fifteen year old Dalmatian was diagnosed with idiopathic epilepsy at age 3. Seizure phases of prodrome, aura, ictus, and postictal state were generally one to two […] in length. […] Subsequent treatment was proscribed in the form of an MCT diet (commercially available ProPlan® Senior 7+Chicken and Rice formula formulated to contain 5.6% MCTs, at least 26% crude protein, at least 15% crude fat, and 50% carbohydrates with less than 2% as crude fiber).

SMILES | concentration at 3 months ([1]; MCT diet, spread 25.00-36.75 μg/ml, p=0.4233, no significant change) [µg/mL] | concentration at 3 months ([1]; placebo-standardized diet, spread 23.50-34.00 μg/ml) [µg/mL] | serum concentration of potassium bromide ([1]; MCT diet, spread 1.02-1.61 mg/ml, p=0.4037, no significant change) [µg/mL] | serum concentration of potassium bromide ([1]; placebo-standardized diet, spread 1.09-1.89 mg/ml) [µg/mL] | side effects [2]
CCC1(c2ccccc2)C(=O)NC(=O)NC1=O [PB, phenobarbital] | 32.5 | 26.5 |  |  | 
[Br-].[K+] [potassium bromide] |  |  | 1290 | 1230 | polyphagia, sedation, and ataxia

From patent US10668041B2, “Compositions and methods comprising medium chain triglycerides for treatment of epilepsy” (Societe des Produits Nestle SA, priority 2014, dated 2020)
